Laboratory results taken from patent publication US20070078057A1, “Microemulsion formulation” (priority 2005, published 2007).

assay: Maximum concentration of ingredient incorporated into the microemulsion; type: physicochemical; conditions: incorporated into the microemulsion formulation of Table 28

Compound | Approximate Maximum Concentration
Xylene | 5.0
Cc1ccccc1 [Toluene] | 2.0
C[C@]12C=CC(=O)C=C1CC[C@@H]1[C@@H]2C(=O)C[C@@]2(C)[C@H]1CC[C@]2(O)C(=O)CO [Prednisone, reference compound] | 0.5
CCCCCC [Hexane] | 2.0
CC(=O)Oc1c(C)c(C)c2c(c1C)CCC(C)(CCC[C@H](C)CCC[C@H](C)CCCC(C)C)O2 (stereo partly drawn) [Vitamin E, α-Tocopherol acetate, reference compound] | 1.0
